From ChEMBL document CHEMBL3046409, “Studies on radioprotective and antiviral activities of some bischalcone derivatives” (Med Chem Res, 2012)

Assays:
Buffalopox virus = test: Antiviral activity against Buffalopox virus infected African green monkey Vero cells assessed as reduction of viral titer after 48 hr; assay type: functional
Camelpox virus = test: Antiviral activity against Camelpox virus infected African green monkey Vero cells assessed as reduction of viral titer after 48 hr; assay type: functional
[1] = Cytotoxicity against Chlorocebus aethiops (African green monkey) Vero cells assessed as maximum non-toxic concentration after 24 hr; assay type: cell-based; settings: chlorocebus sabaeus, read-out: Activity

What does the source list for O=C1/C(=C/c2ccc(F)cc2)CC/C1=C\c1ccc(F)cc1?
inhibition (INH) (Buffalopox virus): 73.69%; inhibition (INH) (Camelpox virus): 54.29%; MNTC at 24 h [1]: 0.0833 µg/mL
